Consider 9 compounds from patent US7553849B2, “Compounds” (Active Biotech AB, priority 2004, dated 2009).

The assay deals with acute experimental autoimmune encephalomyelitis (aEAE). Description: Acute experimental autoimmune encephalomyelitis (aEAE) inhibition in mice. It is filed as in vivo. Conditions: for activity in the aEAE model (in words): mice, no dose stated; for aEAE inhibition (%): percent inhibition of clinical scores vs saline controls.
The mark [1] stands for this setting: SJL/N female mice, dose 0.2 mg/kg po daily at days 3 to 7 and 10 to 12.
Where [2] appears, read: SJL/N female mice, dose 1.0 mg/kg po daily at days 3 to 7 and 10 to 12.
[3] abbreviates: SJL/N female mice, dose 5.0 mg/kg po daily at days 3 to 7 and 10 to 12.

For the compound `O=C(Nc1cccnc1)c1c(O)c2ccsc2[nH]c1=O` [6,7-dihydro-4-hydroxy-N-(3-pyridyl)-6-oxo-thieno[2,3-b]pyridine-5-carboxamide, reference compound], the “activity in the aEAE model (in words)” value was “inactive”.
Consider `Cc1csc2c1c(O)c(C(=O)N(C)c1ccccc1)c(=O)n2C` [Compound #1, 6,7-dihydro-4-hydroxy-N-phenyl-N,3,7-trimethyl-6-oxo-thieno[2,3-b]pyridine-5-carboxamide], for which the “aEAE inhibition (%)” value by setting is: under setting [1], 85%; under setting [2], 99%.
On the same counts, the results for `CCN(C(=O)c1c(O)c2c(C)csc2n(C)c1=O)c1ccccc1` [compound 2, 6,7-dihydro-3,7-dimethyl-N-ethyl-4-hydroxy-N-phenyl-6-oxo-thieno[2,3-b]pyridine-5-carboxamide] are 66% and 84%.
The like results for `CCc1csc2c1c(O)c(C(=O)N(C)c1ccccc1)c(=O)n2C` [compound 3, 6,7-dihydro-N,7-dimethyl-3-ethyl-4-hydroxy-N-phenyl-6-oxo-thieno[2,3-b]pyridine-5-carboxamide] were, in that order, 84% and 100%.
With `COc1ccc(N(C)C(=O)c2c(O)c3c(C)csc3n(C)c2=O)cc1` [compound 6, 6,7-dihydro-4-hydroxy-N-(4-methoxyphenyl)-N,3,7-trimethyl-6-oxo-thieno[2,3-b]pyridine-5-carboxamide], under setting [1], the “aEAE inhibition (%)” value amounted to 92%.
As to `Cc1scc2c1c(O)c(C(=O)N(C)c1ccccc1)c(=O)n2C` [compound 10, 4,5-dihydro-7-hydroxy-N-phenyl-N,1,4-trimethyl-5-oxo-2-thia-4-aza-indene-6-carboxamide], the “aEAE inhibition (%)” value under setting [2] is 78% and the “aEAE inhibition (%)” value under setting [3] amounted to 95%.
On to `CN(C(=O)c1c(O)c2ccsc2n(C)c1=O)c1ccccc1` [compound 11, 6,7-dihydro-N,7-dimethyl-4-hydroxy-N-phenyl-6-oxo-thieno[2,3-b]pyridine-5-carboxamide], for which, under setting [2], the “aEAE inhibition (%)” value came to 53%.
For the compound `CN(C(=O)c1c(O)c2sccc2n(C)c1=O)c1ccccc1` [compound 12, 4,5-dihydro-N,4-dimethyl-7-hydroxy-N-phenyl-5-oxo-thieno[3,2-b]pyridine-6-carboxamide, reference compound], the “activity in the aEAE model (in words)” value is “inactive”. The “aEAE inhibition (%), result in words” value (SJL/N female mice, dose 5.0 mg/kg po, class word defined in footnote) is “inactive*”.
Consider `Cc1csc2c1c(O)c(C(=O)N(C)c1cccnc1)c(=O)n2C` [compound 13, 6,7-dihydro-4-hydroxy-N-(3-pyridyl)-N,3,7-trimethyl-6-oxo-thieno[2,3-b]pyridine-5-carboxamide, reference compound], for which the “activity in the aEAE model (in words)” value was “poorly active”. The “aEAE inhibition (%)” value under setting [3] is recorded as 46%.
